According to patent US8802597B2, “Herbicidal pyrimidines” (E I du Pont de Nemours and Company, priority 2003, dated 2014):

Key:
Assay in all cases: Test A pre/postemergence
Type in all cases: in vivo
[1] = system: redroot pigweed (Amaranthus retroflexus)
Description: (§1) Seeds of barnyardgrass (Echinochloa crus-galli), crabgrass (Digitaria sanguinalis), giant foxtail (Setaria faberi), morningglory (Ipomoea spp.), redroot pigweed (Amaranthus retroflexus) and velvetleaf (Abutilon theophrasti) were planted into a blend of loam soil and sand and treated preemergence with a directed soil spray using test chemicals formulated in a non-phytotoxic solvent mixture which included a surfactant. At the same time these species were also treated with postemergence applications of test chemicals formulated in the same manner.
(§2) Plants ranged in height from 2 to 10 cm and were in the 1- to 2-leaf stage for the postemergence treatment. Treated plants and untreated controls were maintained in a greenhouse for approximately ten days, after which time all treated plants were compared to untreated controls and visually evaluated for injury. Plant response ratings, summarized in Table A, are based on a 0 to 100 scale where 0 is no effect and 100 is complete control. A dash (-) response means no test results.

[2] = system: barnyardgrass (Echinochloa crus-galli)
Description: as §1, §2

[3] = system: giant foxtail (Setaria faberi)
Description: as §1, §2

[4] = system: crabgrass (Digitaria sanguinalis)
Description: as §1, §2

[5] = system: morningglory (Ipomoea spp.)
Description: as §1, §2

[6] = system: velvetleaf (Abutilon theophrasti)
Description: as §1, §2

[7] = Postemergence, 125 g ai/ha, 0 to 100 scale (0 no effect, 100 complete control)
[8] = Postemergence, 500 g ai/ha, 0 to 100 scale (0 no effect, 100 complete control)
[9] = Preemergence, 125 g ai/ha, 0 to 100 scale where 0 is no effect and 100 is complete control, approximately ten days
[10] = Preemergence, 500 g ai/ha, 0 to 100 scale where 0 is no effect and 100 is complete control, approximately ten days
[11] = Postemergence, 2000 g ai/ha, 0 to 100 scale (0 no effect, 100 complete control)
[12] = Preemergence, 2000 g ai/ha, 0 to 100 scale (0 no effect, 100 complete control)

Compound	Plant response rating, Pigweed [1, 7]	Plant response rating, Pigweed [1, 8]	Plant response rating, Pigweed [1, 9]	Plant response rating, Pigweed [1, 10]	Plant response rating, Barnyardgrass [2, 7]	Plant response rating, Barnyardgrass [2, 8]	Plant response rating, Barnyardgrass [2, 9]	Plant response rating, Barnyardgrass [2, 10]	Plant response rating, Foxtail, Giant [3, 7]	Plant response rating, Foxtail, Giant [3, 8]	Plant response rating, Foxtail, Giant [3, 9]	Plant response rating, Foxtail, Giant [3, 10]	Plant response rating, Crabgrass [4, 7]	Plant response rating, Crabgrass [4, 8]	Plant response rating, Crabgrass [4, 9]	Plant response rating, Crabgrass [4, 10]	Plant response rating, Morningglory [5, 8]	Plant response rating, Morningglory [5, 10]	Plant response rating, Velvetleaf [6, 8]	Plant response rating, Velvetleaf [6, 10]	also measured
COC(=O)c1nc(-c2cccc(C)c2)nc(N)c1Cl [Compound 97]	10	30	25	70	30	10	0	0	0	0	5	5	0	0	15	25	50	0	70	50	Plant response rating, Morningglory [5, 7]: 45; Plant response rating, Morningglory [5, 9]: 0; Plant response rating, Velvetleaf [6, 7]: 60; Plant response rating, Velvetleaf [6, 9]: 45
CCOC(OCC)c1nc(-c2ccc(I)cc2)nc(N)c1Cl [Compound 138]	20	35	0	0	0	0	0	0	0	0	0	0	0	0	0	0	20	0	70	0	Plant response rating, Morningglory [5, 7]: 0; Plant response rating, Morningglory [5, 9]: 0; Plant response rating, Velvetleaf [6, 7]: 60; Plant response rating, Velvetleaf [6, 9]: 0
Nc1nc(C2CC2)nc(OCC(=O)[O-])c1Cl.[Na+] [Compound 116]	20	35	30	50	0	0	10	20	0	0	0	0	0	0	0	10	60	50	40	15	Plant response rating, Morningglory [5, 7]: 40; Plant response rating, Morningglory [5, 9]: 30; Plant response rating, Velvetleaf [6, 7]: 15; Plant response rating, Velvetleaf [6, 9]: 0
Nc1nc(C2CC2)nc(C(=O)OCC2CCCO2)c1Cl (stereo not drawn) [Compound 150]	90	90	70	95	80	95	65	80	80	85	50	80	65	80	50	80	100	100	100	95	Plant response rating, Morningglory [5, 7]: 80; Plant response rating, Morningglory [5, 9]: 90; Plant response rating, Velvetleaf [6, 7]: 90; Plant response rating, Velvetleaf [6, 9]: 75
COC(=O)c1nc(-c2ccc(C)cc2)nc(N)c1Br [Compound 82]	45	75	0	70	40	50	0	15	0	0	0	0	0	0	0	0	40	0	90	35	Plant response rating, Morningglory [5, 7]: 20; Plant response rating, Morningglory [5, 9]: 0; Plant response rating, Velvetleaf [6, 7]: 90; Plant response rating, Velvetleaf [6, 9]: 5
CCOC(=O)C(O)c1nc(C2CC2)nc(N)c1Br (stereo not drawn) [Compound 57]	–	75	–	90	–	25	–	25	–	60	–	10	–	10	–	10	70	100	50	80	Plant response rating, Pigweed [1, 11]: 95; Plant response rating, Pigweed [1, 12]: 100; Plant response rating, Barnyardgrass [2, 11]: 75; Plant response rating, Barnyardgrass [2, 12]: 80; Plant response rating, Foxtail, Giant [3, 11]: 80; Plant response rating, Foxtail, Giant [3, 12]: 70; Plant response rating, Crabgrass [4, 11]: 30; Plant response rating, Crabgrass [4, 12]: 70; Plant response rating, Morningglory [5, 11]: 80; Plant response rating, Morningglory [5, 12]: 100; Plant response rating, Velvetleaf [6, 11]: 80; Plant response rating, Velvetleaf [6, 12]: 95
COC(=O)COc1nc(-c2ccc(Cl)cc2)nc(N)c1Cl [Compound 119]	25	45	0	0	0	5	0	10	0	0	0	0	0	0	0	0	35	0	10	0	Plant response rating, Morningglory [5, 7]: 40; Plant response rating, Morningglory [5, 9]: 0; Plant response rating, Velvetleaf [6, 7]: 0; Plant response rating, Velvetleaf [6, 9]: 0
